Results as given in patent US12527779B2, “Prostaglandin E2 (PGE2) EP4 receptor antagonists” (Domain Therapeutics, priority 2019, dated 2026).
Counter-ions that a name gives are not always drawn.

molecular target: T1, human EP4 (hEP4) receptor (Homo sapiens, UniProt P35408); experiment: In vitro human EP4 functional antagonist activity using BRET biosensors (cAMP EPAC biosensor, TCS2510 stimulation); format: cell-based; details: antagonist activity vs EC60 TCS2510, hEP4 in HEK-293 T cells
T1 construct: expressed in transfected cells; host or cells: HEK-293 T cells, transient co-transfection with polyethylenimine
T1 sequence (P35408 whole entry): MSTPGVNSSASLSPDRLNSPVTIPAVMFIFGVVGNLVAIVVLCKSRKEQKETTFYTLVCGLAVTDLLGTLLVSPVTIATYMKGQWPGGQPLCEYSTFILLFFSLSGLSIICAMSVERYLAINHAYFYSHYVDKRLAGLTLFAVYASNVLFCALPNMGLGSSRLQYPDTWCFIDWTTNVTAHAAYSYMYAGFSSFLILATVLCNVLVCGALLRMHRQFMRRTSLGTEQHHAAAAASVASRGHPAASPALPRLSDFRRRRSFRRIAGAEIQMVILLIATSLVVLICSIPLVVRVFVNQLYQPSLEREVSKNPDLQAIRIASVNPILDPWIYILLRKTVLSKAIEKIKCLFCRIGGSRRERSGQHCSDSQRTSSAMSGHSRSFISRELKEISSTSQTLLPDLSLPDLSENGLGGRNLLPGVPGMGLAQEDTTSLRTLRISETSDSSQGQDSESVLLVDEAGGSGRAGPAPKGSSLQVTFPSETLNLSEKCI
How it was run: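 HEK-293T cells transiently co-transfected with hEP4 and EPAC cAMP BRET biosensor (luciferase/GFP), assayed 48 h later in HEPES-buffered saline after 1 h at 22 °C. After 5 min with compound, cells stimulated with EC60 TCS2510 and BRET read for 10 min; IC50 from 10-point, 4.5-log variable-slope fits, duplicate, two experiments.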

IC50 | SMILES
< 100 nM | Cc1cccc(OCCN(C)C2(C(=O)N[C@@H](C)c3ccc(C(=O)O)cc3)CCCCC2)c1 [Example 59, 4-[(1S)-1-[[1-[Methyl-[2-(3-methylphenoxy)ethyl]amino]cyclohexanecarbonyl]amino]ethyl]benzoic acid, hydrochloride]
< 100 nM | COc1cccc(OCCN(C)C2(C(=O)NC3(c4ccc(C(=O)O)cc4)CC3)CCOCC2)c1 [Example 38, 4-[1-[[4-[2-(3-Methoxyphenoxy)ethyl-methyl-amino]tetrahydropyran-4-carbonyl]amino]cyclopropyl]benzoic acid, hydrochloride]
< 1000 nM | C[C@H](NC(=O)C1(N2CC[C@@H](Oc3cccc(C(F)(F)F)c3)C2)CCOCC1)c1cccc(Cl)c1 [Example 191, N—((S)-1-(3-Chlorophenyl)ethyl)-4-((R)-3-(3-(trifluoromethyl)phenoxy)pyrrolidin-1-yl)tetrahydro-2H-pyran-4-carboxamide, hydrochloride]
< 100 nM | C[C@H](NC(=O)C1(N2CC[C@@H](Oc3cccc(Cl)c3)C2)CCC1)c1ccc(C(=O)O)cc1 [Example 159, 4-[(1S)-1-[[1-[(3R)-3-(3-Chlorophenoxy)pyrrolidin-1-yl]cyclobutane-1-carbonyl]amino]ethyl]benzoic acid, hydrochloride]
< 100 nM | C[C@H](NC(=O)C1(N2CC[C@@H](Oc3cccc(C(F)(F)F)c3)C2)CCOCC1)c1ccc(-c2ccn[nH]2)cc1 [Example 177, N—((S)-1-(4-(1H-Pyrazol-5-yl)phenyl)ethyl)-4-((R)-3-(3-(trifluoromethyl)phenoxy)pyrrolidin-1-yl)tetrahydro-2H-pyran-4-carboxamide, hydrochloride]
< 100 nM | Cc1cccc(O[C@@H]2CCN(C3(C(=O)NC4(c5ccc(C(=O)O)cc5)CC4)CCOCC3)C2)c1 [Example 151, 4-[1-[[4-[(3R)-3-(3-Methylphenoxy)pyrrolidin-1-yl]tetrahydropyran-4-carbonyl]amino]cyclopropyl]benzoic acid, hydrochloride]
< 1000 nM | CN(CCOc1ccccc1)C1(C(=O)NC2(c3ccc(C(=O)O)c(Cl)c3)CC2)CCOCC1 [Example 51, 2-Chloro-4-[1-[[4-[methyl(2-phenoxyethyl)amino]tetrahydropyran-4-carbonyl]amino]cyclopropyl]benzoic acid, hydrochloride]
< 100 nM | C[C@H](NC(=O)C(C)(C)N1CC[C@@H](Oc2cccc(C(F)(F)F)c2)C1)c1ccc(C(N)=O)cc1 [Example 173, 4-[(1S)-1-[[2-[(3R)-3-[3-(Trifluoromethyl)phenoxy]pyrrolidin-1-yl]-2-methylpropane-carbonyl]amino]ethyl]benzamide, hydrochloride]
< 1000 nM | COc1cccc([C@H](C)NC(=O)C2(N3CC[C@@H](Oc4cccc(C(F)(F)F)c4)C3)CCOCC2)c1 [Example 196, N—((S)-1-(3-Methoxyphenyl)ethyl)-4-((R)-3-(3-(trifluoromethyl)phenoxy)pyrrolidin-1-yl)tetrahydro-2H-pyran-4-carboxamide, hydrochloride]
< 100 nM | C[C@H](NC(=O)C1(N2CC[C@@H](Oc3cccc(Cl)c3)C2)CCOCC1)c1ccc(C(=O)O)cc1 [Example 140, 4-[(1S)-1-[[4-[(3R)-3-(3-Chlorophenoxy)pyrrolidin-1-yl]tetrahydropyran-4-carbonyl]amino]ethyl]benzoic acid, hydrochloride]
< 1000 nM | C[C@H](NC(=O)C1(N2CC[C@@H](Oc3cccc(C(F)(F)F)c3)C2)CCOCC1)c1ccc(O)cc1 [Example 181, N—((S)-1-(4-Hydroxyphenyl)ethyl)-4-((R)-3-(3-(trifluoromethyl)phenoxy)pyrrolidin-1-yl)tetrahydro-2H-pyran-4-carboxamide, hydrochloride]
< 100 nM | Cc1cccc(OCCNC2(C(=O)N[C@@H](C)c3ccc(C(=O)O)cc3)CCOCC2)c1 [Example 14, 4-[(1S)-1-[[4-[2-(3-Methylphenoxy)ethylamino]tetrahydropyran-4-carbonyl]amino]ethyl]benzoic acid, hydrochloride]
< 100 nM | C[C@H](NC(=O)C1(c2cccc(OCc3ccccc3)c2)CCCC1)c1ccc(C(=O)O)cc1 [Example 113, 4-[(1S)-1-[[1-(3-Benzyloxyphenyl)cyclopentanecarbonyl]amino]ethyl]benzoic acid]
< 100 nM | O=C(O)c1ccc(C2(NC(=O)C3(N4CC[C@@H](Oc5cccc(F)c5)C4)CCOCC3)CC2)cc1 [Example 143, 4-[1-[[4-[(3R)-3-(3-Fluorophenoxy)pyrrolidin-1-yl]tetrahydropyran-4-carbonyl]amino]cyclopropyl]benzoic acid, hydrochloride]
< 100 nM | CN(CCOc1ccccc1)C1(C(=O)NC2(c3ccc(C(=O)O)cc3Cl)CC2)CCOCC1 [Example 52, 3-Chloro-4-[1-[[4-[methyl(2-phenoxyethyl)amino]tetrahydropyran-4-carbonyl]amino]cyclopropyl]benzoic acid, hydrochloride]
< 1000 nM | CN(CCOc1cccc(C#N)c1)C1(C(=O)NC2(c3ccc(C(=O)O)cc3)CC2)CCOCC1 [Example 46, 4-[1-[[4-[2-(3-Cyanophenoxy)ethyl-methyl-amino]tetrahydropyran-4-carbonyl]amino]cyclopropyl]benzoic acid, hydrochloride]
< 1000 nM | C[C@H](NC(=O)C1(c2cccc(OCC3CCCC3)c2)CCOCC1)c1ccc(C(=O)O)cc1 [Example 102, 4-[(1S)-1-[[4-[3-(Cyclopentylmethoxy)phenyl]tetrahydropyran-4-carbonyl]amino]ethyl]benzoic acid]
< 1000 nM | C[C@H](NC(=O)C1(N2CC[C@@H](Oc3cccc(C(F)(F)F)c3)C2)CCOCC1)c1ccccc1F [Example 189, N—((S)-1-(2-Fluorophenyl)ethyl)-4-((R)-3-(3-(trifluoromethyl)phenoxy)pyrrolidin-1-yl)tetrahydro-2H-pyran-4-carboxamide, hydrochloride]
< 100 nM | CN(CCOc1ccccc1OC(F)(F)F)C1(C(=O)NC2(c3ccc(C(=O)O)cc3)CC2)CCOCC1 [Example 44, 4-[1-[[4-[2-(2-Trifluoromethoxyphenoxy)ethyl-methyl-amino]tetrahydropyran-4-carbonyl]amino]cyclopropyl]benzoic acid, hydrochloride]
< 100 nM | CCN(CCOc1cccc(Cl)c1)C1(C(=O)N[C@@H](C)c2ccc(C(=O)O)cc2)CCOCC1 [Example 10, 4-[(1S)-1-[[4-[2-(3-Chlorophenoxy)ethyl-ethyl-amino]tetrahydropyran-4-carbonyl]amino]ethyl]benzoic acid, hydrochloride]
< 100 nM | C[C@H](NC(=O)C1(N2CC[C@@H](Oc3cccc(C(F)(F)F)c3)C2)CCOCC1)c1ccc(C#N)cc1 [Example 182, N—((S)-1-(4-Cyanophenyl)ethyl)-4-((R)-3-(3-(trifluoromethyl)phenoxy)pyrrolidin-1-yl)tetrahydro-2H-pyran-4-carboxamide, hydrochloride]
< 1000 nM | C[C@H](NC(=O)C1(c2ccnc(OCC3CCCCC3)c2)CCOCC1)c1ccc(C(=O)O)cc1 [Example 116, 4-[(1S)-1-[[4-[2-(Cyclohexylmethoxy)-4-pyridyl]tetrahydropyran-4-carbonyl]amino]ethyl]benzoic acid]
